Data set [1] relates to Ang II levels in MIN6 cells. The experiment in a line: Ang II levels in MIN6 cell lysates and cultured media by Ang II ELISA. It is filed as cell-based, mouse. As for the experimental part: (§1) The DAP gene was either knocked down with DAP RNAi construct or overexpressed by transient transfection of DAP-pCMV in MIN6 cells.
(§2) The full-length DAP construct or the control vector was transfected into MIN6 cells. After culturing for 48 hours, MIN6 cells and the culture media were harvested for measurement of DAP and Ang II levels. Higher expression level of DAP (2.1-fold±0.6) in DAP-pCMV-transfected MIN6 cells compared to that in the vector-transfected cells was detected by Western blots. Ang II levels in MIN6 cell lysates and the cultured media were measured after the transfection and compared to the control transfected cells. Ang II-specific ELISA kit (Cayman Chemical) was used for the measurements.
(§3) The cells were transfected with […] of Dnpep siRNA of SEQ ID NO. 13, non-silencing control siRNA, or a full-length of Dnpep cDNA (SEQ ID NO. 12) in pCMV-SPORT6 (Open Biosystems, Huntsville, Ala.) by electroporation (BioRad Laboratories, Berkeley, Calif.). A total of 1×10^5 of the cells was seeded into 6-well culture plates coated with poly-L-lysine and cultured for 24 h. The transfection efficiency was approximately 50 percent according to a co-transfected GFP marker.
(§4) After 48 hours culture, cells and culture media were collected. Real-time PCR (RT-PCR) was conducted with the primers (Assay ID Details: Mm00497488_m1*) and the 7900HT Fast Real-Time PCR System (Applied Biosystems, Foster City, Calif.). Western blots were performed using the ECL Reagents (GE, Piscataway, N.J.).
Ang II levels were measured using the AssayMax Ang II ELISA Kit (Cayman Chemical, Ann Arbor, Mich.). Briefly, standards or samples were incubated in a 96-well plate with biotinylated anti-Ang II antibody for 2 h. After the washings, Streptavidin-Peroxidase Conjugate was added for 30 min. The final reaction was developed with the substrate chromogen and read at 450 nm by an ELISA reader. Ang II levels in the samples were calculated from an Ang II standard curve run with each assay. Values (mean±SEM) are from at least three independent experiments. ANOVA with Tukey's post hoc test was used for statistical analysis.

Data set [2] has as its system DAP. The experiment in a line: DAP protein level in transfected MIN6 cells by Western blot. It is filed as cell-based, mouse. To be noted: 48 hours culture, Western blots. The method, then:
as §1, §2, §3
After 48 hours culture, cells and culture media were collected. […]

For data set [3], the system named is DAP mRNA. The experiment in a line: DAP mRNA level in transfected MIN6 cells by RT-PCR. It is filed as cell-based, mouse. To be noted: 48 hours culture. As for the experimental part:
It was also investigated whether endogenous DAP levels affect the Ang II levels. Dnpep siRNA and control siRNA were purchased (Qiagen, Germantown, Md.). The target sequences were nucleotides 328-348 (SEQ ID NO. 11:
[…]) of mouse Dnpep cDNA (GenBank NM_001110831; SEQ ID NO. 12). MIN6 cells were maintained in DMEM, supplemented with 10% FCS, 10 mM glucose, 2 mmol/l glutamine, 100 U/ml penicillin, and 0.1 mg/ml streptomycin.
as §3, §4

In data set [4] the target is Angiotensin II (1-8). The experiment in a line: cell-based or functional assay.

As to “DAP RNAi: Dnpep siRNA (Qiagen, SEQ ID NO. 13) targeting nucleotides 328-348 of mouse Dnpep cDNA (AATGTGGCCTGGATGGCCTCT; listed as DNA, chemistry not given here; the letters are possibly those of the target site; listed as Mus musculus)”, the “Intracellular Ang II levels” value in data set [1] (MIN6 cell lysates, 48 hours after transfection, mean±SEM) was determined as 50±6 pg/mg protein. Besides, in data set [1] (MIN6 cell lysates, 48 hours culture), the “Intracellular Ang II levels, increase compared to control cells” value is reported as “up to 74%”. The “Extracellular Ang II levels, increase compared to control cells” value in data set [1] (MIN6 culture media, 48 hours culture) turned out to be 57%. For the same substance, the “Extracellular Ang II levels” value in data set [1] (MIN6 cultured media, 48 hours after transfection, mean±SEM) was 52±5.3 pg/mg protein. In addition, the “DAP protein level decrease compared to control cells” value in data set [2] came to 70%. The “Endogenous DAP mRNA level knocked down” value in data set [3] amounted to 78%.
In data set [4], “aspartyl aminopeptidase (DAP), mouse, gene product of Dnpep (from UniProt Q9Z2W0 1-473) (enzyme)” came in with an extracellular Ang II level in DAP RNAi-transfected MIN6 cells against control cells (Ang II ELISA) (percent increase) of 57, an extracellular Ang II level in DAP-transfected MIN6 cells against control cells (Ang II ELISA) (percent lower) of 35, an intracellular Ang II level in DAP RNAi-transfected MIN6 cells against control cells (Ang II ELISA) (percent increase) of 74 and an intracellular Ang II level in DAP-transfected MIN6 cells against vector-treated cells (Ang II ELISA) (percent lower) of 28.

The record behind these values is US20120071544A1, “Methods For Identifying Compounds Effective To Increase The Expression Or Activity Of Aspartyl Aminopeptidase In Mammalian Pancreatic Islet Cells, And Methods For Decreasing Angiotensin II Levels In Mammalian Pancreatic Islet Cells” (priority 2010, published 2012).
